Assay results reported in patent US10098900B2, “Pharmaceutical compositions and their use for treatment of cancer and autoimmune diseases” (ZHEJIANG DTRM BIOPHARMA CO. LTD., priority 2015, dated 2018).

Tests used:
[1] = system: DoHH-2 cell line; experiment: Inhibition assay of tumor cell activity (cell viability), DoHH-2; type: cell-based; details: Homo sapiens, individual compound, read-out: Inh % on DoHH-2 cell line (AVG)
Description: (§1) Inhibition Assay of Tumor Cell Activity:
(§2) Tumor cells (TMD-8, DoHH2 and WSU-DLCL2) were transferred and attached to 96-well plates. After one night, blank buffer and selected concentrations (0.01 nM-100 μM) of the test compound solution were added. After 48 hours incubation, CellTiter-Go was added to lyse the cells. Recording luminescent signal and calculate the percent inhibition of cell viability

[2] = system: TMD-8 cell line; experiment: Inhibition assay of tumor cell activity (cell viability), TMD-8; type: cell-based, human; details: individual compound; for Inh % on TMD-8 cell line (AVG): 48 h
Description: as §1, §2

[3] = system: resistant WSU-DLCL2 cell line; experiment: Inhibition assay of tumor cell activity (cell viability), WSU-DLCL2; type: cell-based; details: Homo sapiens, WSUDLCL2, individual compound, read-out: Inh % on resistant WSU-DLCL2 cell line (AVG)
Description: as §1, §2

## C=CC(=O)N1CC[C@@H](n2nc(-c3ccc(Oc4c(F)c(F)cc(F)c4F)cc3F)c3c(N)ncnc32)C1 [Compound 3, 1-((R)-3-(4-amino-3-(2-fluoro-4-(2,3,5,6-tetrafluorophenoxy)phenyl)-1H-pyrazolo[3,4-d]pyrimidin-1-yl)pyrrolidin-1-yl)prop-2-en-1-one]
[1]; 0.01 uM
  inhibition at 0.01 µM: 15.6%
[1]; 0.1 uM
  inhibition at 0.1 µM: 34.8%
[1]; 1 uM
  inhibition at 1 µM: 49.9%
[2]; Homo sapiens, TMD8, 48 h, 0.01 uM (10 nM), read-out: Inh % on TMD-8 cell line (AVG)
  inhibition at 0.01 µM: 46.1%
[2]; Homo sapiens, TMD8, 48 h, 0.1 uM (100 nM), read-out: Inh % on TMD-8 cell line (AVG)
  inhibition at 0.1 µM: 59.6%
[2]; Homo sapiens, TMD8, 48 h, 1 uM (1,000 nM), read-out: Inh % on TMD-8 cell line (AVG)
  inhibition at 1 µM: 61.7%
[2]; Homo sapiens, TMD8, 48 h, 10 uM, read-out: Inh % on TMD-8 cell line (AVG)
  inhibition at 10 µM: 74.9%
[2]; Homo sapiens, TMD8, 48 h, 100 uM, read-out: Inh % on TMD-8 cell line (AVG)
  inhibition at 100 µM: 99.7%
[2]; 0.01 uM (10 nM)
  Inh % on TMD-8 cell line (AVG): 51.66%
[2]; 0.1 uM (100 nM)
  Inh % on TMD-8 cell line (AVG): 52.40%
[2]; 1 uM (1,000 nM)
  Inh % on TMD-8 cell line (AVG): 55.05%
[3]; 0.01 uM
  inhibition at 0.01 µM: -10.1%
[3]; 0.1 uM
  inhibition at 0.1 µM: -1.36%
[3]; 1 uM
  inhibition at 1 µM: 41%
